ChEMBL document CHEMBL5608191, “Structure-based discovery of novel piperidine-biphenyl-DAPY derivatives as non-nucleoside reverse transcriptase inhibitors featuring improved potency, safety, and selectivity: From piperazine-biphenyl-DAPYs to piperidine-biphenyl-DAPYs” (Eur J Med Chem, 2024)
In brackets after ≈: the same amount, converted by molar mass.

Tests used:
[1] = test system: Human immunodeficiency virus 1; assay: Antiviral activity against wild-type HIV-1 IIIB infected in human MT4 cells assessed as protection against virus-induced cytopathic effect incubated for 5 days by MTT assay; assay type: functional, organism-based; conditions: Human immunodeficiency virus 1, IIIB, MT4, 120 h
[2] = Cytotoxicity against human MT4 cells assessed as reduction in cell viability incubated for 5 days by MTT assay; assay type: toxicity, cell-based; conditions: time 5 day
[3] = Selectivity index, ratio of CC50 for human MT4 cells to EC50 for wild-type HIV-1 IIIB infected in human MT4 cells; assay type: toxicity, cell-based; conditions: read-out: Ratio CC50/EC50
[4] = test system: Human immunodeficiency virus 1; assay: Antiviral activity against HIV-1 harboring RT L100I mutant infected in human MT4 cells assessed as protection against virus-induced cytopathic effect incubated for 5 days by MTT assay; assay type: functional, organism-based; conditions: Human immunodeficiency virus 1, MT4, 120 h
[5] = test system: Human immunodeficiency virus 1; assay: Antiviral activity against HIV-1 harboring RT K103N mutant infected in human MT4 cells assessed as protection against virus-induced cytopathic effect incubated for 5 days by MTT assay; assay type: functional, organism-based; conditions: Human immunodeficiency virus 1, MT4, 120 h
[6] = test system: Human immunodeficiency virus 1; assay: Antiviral activity against HIV-1 harboring RT Y181C mutant infected in human MT4 cells assessed as protection against virus-induced cytopathic effect incubated for 5 days by MTT assay; assay type: functional, organism-based; conditions: Human immunodeficiency virus 1, MT4, 120 h
[7] = test system: Human immunodeficiency virus 1; assay: Antiviral activity against HIV-1 harboring RT Y188L mutant infected in human MT4 cells assessed as protection against virus-induced cytopathic effect incubated for 5 days by MTT assay; assay type: functional, organism-based; conditions: Human immunodeficiency virus 1, MT4, 120 h
[8] = test system: Human immunodeficiency virus 1; assay: Antiviral activity against HIV-1 harboring RT E138K mutant infected in human MT4 cells assessed as protection against virus-induced cytopathic effect incubated for 5 days by MTT assay; assay type: functional, organism-based; conditions: Human immunodeficiency virus 1, MT4, 120 h
[9] = biological target: Human immunodeficiency virus type 1 reverse transcriptase (Human immunodeficiency virus 1, UniProt Q72547); assay: Inhibition of recombinant wild-type HIV-1 reverse transcriptase incubated for 40 mins by fluorescence based assay
Cytochrome P450 1A2 = biological target: T1, Cytochrome P450 1A2 (Homo sapiens, UniProt P05177); assay: Inhibition of CYP1A2 (unknown origin); assay type: ADME
T1 sequence (P05177 whole entry): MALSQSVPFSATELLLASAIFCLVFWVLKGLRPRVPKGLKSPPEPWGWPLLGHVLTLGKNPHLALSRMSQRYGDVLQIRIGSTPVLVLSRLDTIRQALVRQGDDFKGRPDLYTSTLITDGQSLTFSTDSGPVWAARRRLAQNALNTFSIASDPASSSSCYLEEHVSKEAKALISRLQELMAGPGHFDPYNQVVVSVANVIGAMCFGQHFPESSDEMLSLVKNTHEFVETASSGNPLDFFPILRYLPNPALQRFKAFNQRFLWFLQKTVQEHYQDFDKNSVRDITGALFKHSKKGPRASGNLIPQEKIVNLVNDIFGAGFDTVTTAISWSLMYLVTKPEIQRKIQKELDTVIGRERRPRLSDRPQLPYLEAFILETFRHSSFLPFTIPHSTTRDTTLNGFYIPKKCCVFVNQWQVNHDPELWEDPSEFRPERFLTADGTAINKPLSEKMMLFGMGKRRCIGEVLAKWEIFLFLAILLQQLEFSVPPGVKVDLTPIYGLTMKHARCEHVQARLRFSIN

Cytochrome P450 2C19 = Cytochrome P450 2C19 (Homo sapiens, UniProt P33261); assay: Inhibition of CYP2C19 (unknown origin); assay type: ADME
Chain of Cytochrome P450 2C19 (P33261 whole entry): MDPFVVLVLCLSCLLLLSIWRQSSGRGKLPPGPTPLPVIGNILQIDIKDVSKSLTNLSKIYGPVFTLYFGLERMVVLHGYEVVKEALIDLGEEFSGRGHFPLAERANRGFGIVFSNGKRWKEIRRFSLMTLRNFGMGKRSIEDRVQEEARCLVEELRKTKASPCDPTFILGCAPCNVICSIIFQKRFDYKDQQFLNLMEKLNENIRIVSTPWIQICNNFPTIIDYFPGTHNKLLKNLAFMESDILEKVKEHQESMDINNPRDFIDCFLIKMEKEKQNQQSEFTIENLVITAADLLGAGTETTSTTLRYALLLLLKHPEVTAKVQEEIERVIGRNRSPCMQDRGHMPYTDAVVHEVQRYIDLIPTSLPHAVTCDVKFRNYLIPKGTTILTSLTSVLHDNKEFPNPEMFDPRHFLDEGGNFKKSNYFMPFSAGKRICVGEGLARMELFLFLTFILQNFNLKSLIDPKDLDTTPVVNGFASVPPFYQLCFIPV

Cytochrome P450 2C9 = Cytochrome P450 2C9 (Homo sapiens, UniProt P11712); assay: Inhibition of CYP2C9 (unknown origin); assay type: ADME
Chain of Cytochrome P450 2C9 (P11712 whole entry): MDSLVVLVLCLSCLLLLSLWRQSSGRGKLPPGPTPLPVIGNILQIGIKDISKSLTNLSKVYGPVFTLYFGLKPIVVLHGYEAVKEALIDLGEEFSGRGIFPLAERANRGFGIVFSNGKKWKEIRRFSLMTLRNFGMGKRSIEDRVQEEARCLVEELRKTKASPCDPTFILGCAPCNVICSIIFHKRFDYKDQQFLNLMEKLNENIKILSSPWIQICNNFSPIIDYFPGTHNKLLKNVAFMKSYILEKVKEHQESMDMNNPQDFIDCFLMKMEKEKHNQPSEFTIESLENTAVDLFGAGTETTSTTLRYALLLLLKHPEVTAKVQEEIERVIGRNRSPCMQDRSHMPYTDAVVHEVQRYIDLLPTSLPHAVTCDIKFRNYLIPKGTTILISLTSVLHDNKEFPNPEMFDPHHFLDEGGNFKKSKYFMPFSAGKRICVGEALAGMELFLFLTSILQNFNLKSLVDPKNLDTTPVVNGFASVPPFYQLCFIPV

Cytochrome P450 2D6 = Cytochrome P450 2D6 (Homo sapiens, UniProt P10635); assay: Inhibition of CYP2D6 (unknown origin); assay type: ADME
Chain of Cytochrome P450 2D6 (P10635 whole entry): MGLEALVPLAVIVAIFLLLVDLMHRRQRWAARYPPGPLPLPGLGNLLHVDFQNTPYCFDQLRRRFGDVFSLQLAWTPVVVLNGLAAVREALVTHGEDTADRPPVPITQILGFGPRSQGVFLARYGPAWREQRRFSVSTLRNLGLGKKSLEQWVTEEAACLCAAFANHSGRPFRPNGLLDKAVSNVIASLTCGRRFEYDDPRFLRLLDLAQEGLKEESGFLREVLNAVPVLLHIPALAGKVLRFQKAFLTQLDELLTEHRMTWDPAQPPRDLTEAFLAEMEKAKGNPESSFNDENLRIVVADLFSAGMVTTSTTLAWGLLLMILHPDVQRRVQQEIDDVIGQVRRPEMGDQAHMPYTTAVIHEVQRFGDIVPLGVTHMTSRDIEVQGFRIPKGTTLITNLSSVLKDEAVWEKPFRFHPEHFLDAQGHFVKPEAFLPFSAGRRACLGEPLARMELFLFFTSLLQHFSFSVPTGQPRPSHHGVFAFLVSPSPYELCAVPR

Cytochrome P450 3A4 [10] = biological target: T2, Cytochrome P450 3A4 (Homo sapiens, UniProt P08684); assay: Inhibition of CYP3A4 (unknown origin) using midazolam as substrate; assay type: ADME
T2 sequence (P08684 whole entry): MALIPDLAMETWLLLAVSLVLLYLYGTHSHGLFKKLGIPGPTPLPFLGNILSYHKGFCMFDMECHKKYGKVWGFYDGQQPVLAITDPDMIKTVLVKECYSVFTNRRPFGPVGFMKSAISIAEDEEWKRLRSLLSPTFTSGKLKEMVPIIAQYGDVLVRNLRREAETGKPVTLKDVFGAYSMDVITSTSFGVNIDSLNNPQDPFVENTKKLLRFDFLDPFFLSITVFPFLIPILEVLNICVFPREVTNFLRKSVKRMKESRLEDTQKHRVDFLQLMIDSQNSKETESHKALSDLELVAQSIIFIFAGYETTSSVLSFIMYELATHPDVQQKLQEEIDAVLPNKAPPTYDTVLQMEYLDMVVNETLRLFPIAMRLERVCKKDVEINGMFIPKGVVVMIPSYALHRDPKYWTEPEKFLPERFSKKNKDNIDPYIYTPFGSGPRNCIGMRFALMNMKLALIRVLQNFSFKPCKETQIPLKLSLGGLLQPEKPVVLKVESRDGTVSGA

Cytochrome P450 3A4 [11] = biological target: T2, Cytochrome P450 3A4; assay: Inhibition of CYP3A4 (unknown origin) using testosterone as substrate; assay type: ADME
[12] = biological target: Voltage-gated inwardly rectifying potassium channel KCNH2 (Homo sapiens, UniProt Q12809); assay: Inhibition of hERG expressed in CHO cells; assay type: toxicity, cell-based
Chain of Voltage-gated inwardly rectifying potassium channel KCNH2 (Q12809 whole entry): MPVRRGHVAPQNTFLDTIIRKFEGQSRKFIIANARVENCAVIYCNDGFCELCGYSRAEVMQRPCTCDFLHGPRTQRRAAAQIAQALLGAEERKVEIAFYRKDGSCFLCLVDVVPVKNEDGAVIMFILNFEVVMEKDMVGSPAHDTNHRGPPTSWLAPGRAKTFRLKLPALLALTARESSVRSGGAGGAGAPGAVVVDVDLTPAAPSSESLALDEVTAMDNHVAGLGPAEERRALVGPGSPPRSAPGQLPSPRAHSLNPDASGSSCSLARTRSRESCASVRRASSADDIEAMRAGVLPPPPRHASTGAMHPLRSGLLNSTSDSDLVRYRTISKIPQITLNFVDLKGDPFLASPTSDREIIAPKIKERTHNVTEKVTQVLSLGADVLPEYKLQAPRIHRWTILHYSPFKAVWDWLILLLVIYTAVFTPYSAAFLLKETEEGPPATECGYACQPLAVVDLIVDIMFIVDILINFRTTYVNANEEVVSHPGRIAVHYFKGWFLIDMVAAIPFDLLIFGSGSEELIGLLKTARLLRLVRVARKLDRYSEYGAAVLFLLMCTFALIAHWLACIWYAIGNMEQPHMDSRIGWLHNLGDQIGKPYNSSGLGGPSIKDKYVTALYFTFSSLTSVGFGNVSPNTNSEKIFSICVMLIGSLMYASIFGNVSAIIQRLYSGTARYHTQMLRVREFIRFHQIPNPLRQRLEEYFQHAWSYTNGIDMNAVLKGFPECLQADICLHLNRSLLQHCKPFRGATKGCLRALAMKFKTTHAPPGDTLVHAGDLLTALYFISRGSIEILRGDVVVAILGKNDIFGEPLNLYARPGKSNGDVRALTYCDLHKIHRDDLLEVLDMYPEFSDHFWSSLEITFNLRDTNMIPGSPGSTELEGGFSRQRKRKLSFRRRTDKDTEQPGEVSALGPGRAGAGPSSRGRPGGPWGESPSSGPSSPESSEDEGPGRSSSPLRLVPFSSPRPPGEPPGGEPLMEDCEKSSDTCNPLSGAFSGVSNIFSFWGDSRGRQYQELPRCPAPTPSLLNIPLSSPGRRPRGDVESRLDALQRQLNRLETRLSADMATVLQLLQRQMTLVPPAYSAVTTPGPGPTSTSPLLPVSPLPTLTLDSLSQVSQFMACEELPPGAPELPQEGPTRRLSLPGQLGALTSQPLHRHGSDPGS

[13] = Acute toxicity in mouse assessed as animal death treated for 14 days; conditions: in vivo, 336 h, time 14 day
[14] = Acute toxicity in mouse assessed as toxic symptoms treated for 14 days; conditions: in vivo, 336 h, time 14 day
[15] = Acute toxicity in mouse assessed as change in body weight treated for 14 days; conditions: in vivo, 336 h, time 14 day
[16] = Acute toxicity in mouse assessed as apparent pathological damage in heart treated for 14 days by H and E staining based analysis; assay type: tissue-based; conditions: in vivo, 336 h, time 14 day
[17] = Acute toxicity in mouse assessed as apparent pathological damage in liver treated for 14 days by H and E staining based analysis; assay type: tissue-based; conditions: in vivo, 336 h, time 14 day
[18] = Acute toxicity in mouse assessed as apparent pathological damage in spleen treated for 14 days by H and E staining based analysis; assay type: tissue-based; conditions: in vivo, 336 h, time 14 day
[19] = Acute toxicity in mouse assessed as apparent pathological damage in lung treated for 14 days by H and E staining based analysis; assay type: tissue-based; conditions: in vivo, 336 h, time 14 day
[20] = Acute toxicity in mouse assessed as apparent pathological damage in kidney treated for 14 days by H and E staining based analysis; conditions: in vivo, 336 h, time 14 day
[21] = Acute toxicity in mouse assessed as apparent pathological damage in brain treated for 14 days by H and E staining based analysis; assay type: tissue-based; conditions: in vivo, 336 h, time 14 day
[22] = Acute toxicity in mouse assessed as drug tolerance at 2 g/kg treated for 14 days; conditions: in vivo, 2000 mg/kg, 336 h, time 14 day
[23] = Solubility of compound in phosphate buffer at pH 2 by HPLC analysis; assay type: physicochemical
[24] = Solubility of compound in phosphate buffer at pH 7 by HPLC analysis; assay type: physicochemical
[25] = Solubility of compound in phosphate buffer at pH 7.4 by HPLC analysis; assay type: physicochemical
[26] = Solubility of compound in water by HPLC analysis; assay type: physicochemical
Cytochrome P450 3A4 [27] = biological target: T2, Cytochrome P450 3A4; assay: Inhibition of CYP3A4 (unknown origin); assay type: ADME

| Compound | EC50 [1] [nM] | CC50 at 120 h [2] [nM] | selectivity ratio [3] | EC50 [4] [nM] | EC50 [5] [nM] | EC50 [6] [nM] | EC50 [7] [nM] | EC50 [8] [nM] | IC50 [9] [nM] | solubility [24] [µg/mL] | solubility [25] [µg/mL] | further results |
| --- | --- | --- | --- | --- | --- | --- | --- | --- | --- | --- | --- | --- |
| CCOC(=O)c1cnc(NC2CCN(Cc3ccc(C(=O)NC)cc3)CC2)nc1Oc1c(C)cc(-c2ccc(C#N)cc2)cc1C | 6 | > 202000 | > 33100 | 29 | 7 | 38 | 63 | 47 | 713 | < 1 | < 1 | IC50 (Cytochrome P450 1A2): > 50000 nM; IC50 (Cytochrome P450 2C19): > 50000 nM; IC50 (Cytochrome P450 2C9): > 50000 nM; IC50 (Cytochrome P450 2D6): > 50000 nM; IC50 (Cytochrome P450 3A4 [10]): > 50000 nM; IC50 (Cytochrome P450 3A4 [11]): > 50000 nM; IC50 [12]: 25900 nM; Activity [13]: Non-Toxic; Activity [14]: Non-Toxic; Activity [15]: Non-Toxic; Activity [16]: Non-Toxic; Activity [17]: Non-Toxic; Activity [18]: Non-Toxic; Activity [19]: Non-Toxic; Activity [20]: Non-Toxic; Activity [21]: Non-Toxic; Activity [22]: Non-Toxic; solubility [23]: 109 µg/mL (≈ 177 µM); solubility [26]: < 1 µg/mL |
| CCOC(=O)c1cnc(NC2CCN(Cc3ccc(F)cc3)CC2)nc1Oc1c(C)cc(-c2ccc(C#N)cc2)cc1C | 44 | 185000 | 4180 | 257 | 115 | 158 | 790 | 154 | 582 | – | – | – |
| CCOC(=O)c1cnc(NC2CCN(Cc3cccnc3)CC2)nc1Oc1c(C)cc(-c2ccc(C#N)cc2)cc1C | 35 | > 222000 | > 6430 | 272 | 53 | 99 | 431 | 70 | 718 | – | – | – |
| CCOC(=O)c1cnc(NC2CCN(Cc3cccc(C#N)c3)CC2)nc1Oc1c(C)cc(-c2ccc(C#N)cc2)cc1C | 36 | 178000 | 4960 | 342 | 65 | 134 | 389 | 81 | 530 | – | – | – |
| CCOC(=O)c1cnc(NC2CCN(Cc3ccncc3)CC2)nc1Oc1c(C)cc(-c2ccc(C#N)cc2)cc1C | 16 | 60000 | 3720 | 73 | 13 | 66 | 87 | 73 | 527 | – | – | – |
| CCOC(=O)c1cnc(NC2CCN(Cc3ccc(S(N)(=O)=O)cc3)CC2)nc1Oc1c(C)cc(-c2ccc(C#N)cc2)cc1C | 35 | > 195000 | > 5640 | 212 | 46 | 202 | 538 | 83 | 736 | – | – | – |
| CCOC(=O)c1cnc(NC2CCN(Cc3ccc(C(=O)NC)cc3)CC2)nc1Nc1c(C)cc(-c2ccc(C#N)cc2)cc1C.O=P(O)(O)O | – | – | – | – | – | – | – | – | – | < 1 | < 1 | solubility [23]: 136 µg/mL; solubility [26]: 77.2 µg/mL |
| CCOC(=O)c1cnc(NC2CCN(Cc3ccc(S(C)(=O)=O)cc3)CC2)nc1Oc1c(C)cc(-c2ccc(C#N)cc2)cc1C | 13 | 27900 | 2290 | 57 | 13 | 51 | 67 | 105 | 598 | – | – | – |
| CCOC(=O)c1cnc(NC2CCN(Cc3cccc(C(=O)NC)c3)CC2)nc1Oc1c(C)cc(-c2ccc(C#N)cc2)cc1C | 37 | 20400 | 556 | 74 | 48 | 67 | 246 | 51 | 686 | – | – | – |
| CCOC(=O)c1cnc(NC2CCN(Cc3cccc(C(N)=O)c3)CC2)nc1Oc1c(C)cc(-c2ccc(C#N)cc2)cc1C | 15 | 11500 | 757 | 66 | 44 | 76 | 342 | 68 | 669 | – | – | – |
| CCOC(=O)c1cnc(NC2CCN(Cc3ccc(S(=O)(=O)NC)cc3)CC2)nc1Oc1c(C)cc(-c2ccc(C#N)cc2)cc1C | 24 | 10900 | 460 | 35 | 26 | 72 | 177 | 38 | 744 | – | – | – |
| Br.CCOC(=O)c1cnc(NC2CCN(Cc3ccc(C(=O)NC)cc3)CC2)nc1Nc1c(C)cc(-c2ccc(C#N)cc2)cc1C | – | – | – | – | – | – | – | – | – | < 1 | < 1 | solubility [23]: 141 µg/mL; solubility [26]: 91.4 µg/mL |
| CCOC(=O)c1cnc(NC2CCN(Cc3ccccn3)CC2)nc1Oc1c(C)cc(-c2ccc(C#N)cc2)cc1C | 18 | > 222000 | > 12200 | 128 | 43 | 118 | 313 | 164 | 676 | – | – | – |
| CCOC(=O)c1cnc(NC2CCN(Cc3ccc(C(=O)NC)cc3)CC2)nc1Oc1c(C)cc(-c2ccc(C#N)cc2)cc1C.Cl | – | – | – | – | – | – | – | – | – | < 1 | < 1 | solubility [23]: 103 µg/mL; solubility [26]: 336 µg/mL |
| CCOC(=O)c1cnc(NC2CCN(Cc3ccc(C(=O)NC)cc3)CC2)nc1Nc1c(C)cc(-c2ccc(C#N)cc2)cc1C.O=S(=O)(O)O | – | – | – | – | – | – | – | – | – | < 1 | < 1 | solubility [23]: 147 µg/mL; solubility [26]: 134 µg/mL |
| CCOC(=O)c1cnc(NC2CCN(Cc3ccc(C(N)=O)cc3)CC2)nc1Oc1c(C)cc(-c2ccc(C#N)cc2)cc1C | 11 | 191000 | 17400 | 45 | 17 | 48 | 94 | 50 | 596 | – | – | – |
| COc1ccc2c(c1)[C@]13CCCC[C@@H]1[C@H](C2)N(C)CC3 [DEXTROMETHORPHAN] | – | – | – | – | – | – | – | – | – | – | – | IC50 (Cytochrome P450 2D6): 242 nM |
| Cc1cc(C#N)cc(C)c1Oc1nc(Nc2ccc(C#N)cc2)nc(N)c1Br [ETRAVIRINE] | – | > 4610 | – | – | – | – | 24 | 13 | – | < 1 | < 1 | – |
| Cc1cc(/C=C/C#N)cc(C)c1Nc1ccnc(Nc2ccc(C#N)cc2)n1 [RILPIVIRINE] | – | – | – | – | – | – | – | – | 35 | < 1 | < 1 | – |
| C[C@]12CC[C@H]3[C@@H](CCC4=CC(=O)CC[C@@]43C)[C@@H]1CC[C@@H]2O [TESTOSTERONE] | – | – | – | – | – | – | – | – | – | – | – | IC50 (Cytochrome P450 3A4 [27]): 37 nM |
